Here are results for one compound from patent publication US11426409B2, “Compounds, compositions and methods for treating or preventing HER-driven drug-resistant cancers” (The Regents of the University of Colorado, priority 2017, dated 2022).

For this test, the system named is HER2 phosphorylation. The conditions noted are these: HER2-driven cell lines, 2 hours, normoxic, immunoblot. (A western blot detects proteins with antibodies after separation by electrophoresis.)

The structures appear in SMILES notation.

For `CN(C)CC=CC(=O)Nc1cc2c(Nc3ccc(F)c(Cl)c3)ncnc2cc1O[C@H]1CCOC1` [afatinib, N-[4-[(3-Chloro-4-fluorophenyl)amino]-7-[[(3S)-tetrahydro-3-furanyl]oxy]-6-quinazolinyl]-4(dimethylamino)-2-butenamide], the “Concentration inhibiting HER2 phosphorylation (pHER2)” value worked out at 100 nM.
